Experimental data: PubChem BioAssay AID192 (DTP/NCI, 2004)
Where “and” joins values, the source holds several entries; their conditions need not be identical. Identical values can stand only once. Inconclusive results and toxic doses are left out. The calls were made as follows: active = survival T/C of 150% or more; inactive = T/C below 125% in these data. Square brackets hold non-standard residues; d marks the D form. Peptide text beside a SMILES is read from it. ξ: configuration not given here. ξV = CC(C)C(N)C(=O)O

Test system: BDF1 mice, B16 melanoma ip, median survival T/C
Experiment: NCI In Vivo Anticancer Drug Screen. Data for tumor model B16 Melanoma (intraperitoneal) in B6D2F1 (BDF1) mice
Details: endpoint: median survival time, higher = longer survival
How it was run: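 Mice with transplantable tumors; drug vs vehicle groups; endpoint survival or tumor size; value = T/C.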

[1] = dose: 100.0 mg/kg/injection, schedule: Q01DX009 (ip), vehicle: saline
[2] = dose: 200.0 mg/kg/injection, schedule: Q01DX009 (ip), vehicle: saline
[3] = dose: 400.0 mg/kg/injection, schedule: Q01DX009 (ip), vehicle: saline
[4] = dose: 50.0 mg/kg/injection, schedule: Q01DX009 (ip), vehicle: Klucel (hydroxypropylcellulose) (HPC)
[5] = dose: 100.0 mg/kg/injection, schedule: Q01DX009 (ip), vehicle: Klucel (hydroxypropylcellulose) (HPC)
[6] = dose: 200.0 mg/kg/injection, schedule: Q01DX009 (ip), vehicle: Klucel (hydroxypropylcellulose) (HPC)
[7] = dose: 12.5 mg/kg/injection, schedule: Q01DX009 (ip), vehicle: saline
[8] = dose: 25.0 mg/kg/injection, schedule: Q01DX009 (ip), vehicle: saline
[9] = dose: 50.0 mg/kg/injection, schedule: Q01DX009 (ip), vehicle: saline
[10] = dose: 12.5 mg/kg/injection, schedule: Q01DX009 (ip), vehicle: saline with Tween-80
[11] = dose: 25.0 mg/kg/injection, schedule: Q01DX009 (ip), vehicle: Klucel (hydroxypropylcellulose) (HPC)
[12] = dose: 25.0 mg/kg/injection, schedule: Q01DX009 (ip), vehicle: saline with Tween-80
[13] = dose: 50.0 mg/kg/injection, schedule: Q01DX009 (ip), vehicle: saline with Tween-80
[14] = dose: 100.0 mg/kg/injection, schedule: Q01DX009 (ip), vehicle: saline with Tween-80
[15] = dose: 100.0 mg/kg/injection, schedule: Q04DX003 (ip), vehicle: saline with Tween-80
[16] = dose: 200.0 mg/kg/injection, schedule: Q04DX003 (ip), vehicle: saline with Tween-80
[17] = dose: 400.0 mg/kg/injection, schedule: Q04DX003 (ip), vehicle: saline with Tween-80
[18] = dose: 200.0 mg/kg/injection, schedule: Q01DX009 (ip), vehicle: saline with Tween-80
[19] = dose: 0.39 mg/kg/injection, schedule: Q01DX009 (ip), vehicle: Klucel (hydroxypropylcellulose) (HPC)

Measured: T/C

CC(C)C(NC(=O)CN)C(=O)O (centres undefined) (H-Gly-[ξV]-OH)
inactive: [1] 102 % of control | dose: 100.0 mg/kg/injection, schedule: Q04DX003 (ip), vehicle: saline 102 % of control | [2] 100 % of control | dose: 200.0 mg/kg/injection, schedule: Q04DX003 (ip), vehicle: saline 97 % of control | [3] 90 % of control | dose: 400.0 mg/kg/injection, schedule: Q04DX003 (ip), vehicle: saline 95 % of control

CSCCC(NC(=O)OCC1c2ccccc2-c2ccccc21)C(=O)O (centres undefined)
inactive: [4] 103 % of control | [5] 98 % of control | [6] 87 % of control

CNCC(C)(C)c1ccccc1
inactive: dose: 6.25 mg/kg/injection, schedule: Q01DX009 (ip), vehicle: saline 102 % of control | [7] 90 % of control | [8] 102 % of control | [9] 100 % of control

COc1cc(/C=C/c2nc3ccccc3nc2/C=C/c2cc(OC)c(OC)c(OC)c2)cc(OC)c1OC
inactive: dose: 6.25 mg/kg/injection, schedule: Q01DX009 (ip), vehicle: saline with Tween-80 106 % of control | [10] 97 % of control

N=C(N)SCc1ccc(CSC(=N)N)s1
inactive: dose: 7.5 mg/kg/injection, schedule: Q01DX009 (ip), vehicle: saline 101 % of control | dose: 15.0 mg/kg/injection, schedule: Q01DX009 (ip), vehicle: saline 99 % of control | dose: 30.0 mg/kg/injection, schedule: Q01DX009 (ip), vehicle: saline 104 % of control

CC1CCC2(CC1)CCN(CCCN(C)C)CC2
inactive: [9] 99 % of control | [1] 110 % of control

Cc1ccc(NC(=O)Nc2ccc(Cl)c(Cl)c2)c(C)c1
inactive: [11] 109 % of control | [4] 103 % of control | [5] 92 % of control

Cc1ccccc1N1C(=O)CSC1=S
inactive: dose: 12.5 mg/kg/injection, schedule: Q01DX009 (ip), vehicle: Klucel (hydroxypropylcellulose) (HPC) 90 % of control | [11] 93 % of control

ClC(Cl)=C(Cl)Cl
inactive: [10] 105 % of control | [12] 98 % of control | [4] 101 % of control | [13] 93 % of control | [5] 99 % of control | [14] 92 % of control | [6] 98 % of control | dose: 400.0 mg/kg/injection, schedule: Q01DX009 (ip), vehicle: Klucel (hydroxypropylcellulose) (HPC) 88 % of control

NC(CCC(=O)NCC(=O)O)C(=O)O (centres undefined)
inactive: [9] 92 % of control | [1] 91 % of control | [2] 101 % of control | [3] 88 % of control

CC12C=CC(C=C1)C(O)C2 (centres undefined)
inactive: [15] 112 % of control | [16] 93 % of control | [17] 101 % of control

CC1(C)N=C(N)N=C(N)N1c1ccc(Cl)c(Cl)c1
inactive: dose: 6.25 mg/kg/injection, schedule: Q01DX009 (ip), vehicle: Klucel (hydroxypropylcellulose) (HPC) 117 % of control | dose: 6.25 mg/kg/injection, schedule: Q04DX003 (ip), vehicle: Klucel (hydroxypropylcellulose) (HPC) 102 % of control | dose: 12.5 mg/kg/injection, schedule: Q04DX003 (ip), vehicle: Klucel (hydroxypropylcellulose) (HPC) 103 % of control | dose: 25.0 mg/kg/injection, schedule: Q04DX003 (ip), vehicle: Klucel (hydroxypropylcellulose) (HPC) 114 % of control | dose: 50.0 mg/kg/injection, schedule: Q04DX003 (ip), vehicle: Klucel (hydroxypropylcellulose) (HPC) 116 % of control

CCCCNC(=O)Nc1ccc(C(=O)OCC(C)C)cc1
inactive: [14] 99 % of control | [18] 96 % of control

N=c1c2ncn(Cc3cccc(C(F)(F)F)c3)c2ncn1O
inactive: dose: 0.09 mg/kg/injection, schedule: Q01DX009 (ip), vehicle: Klucel (hydroxypropylcellulose) (HPC) 93 % of control | dose: 0.19 mg/kg/injection, schedule: Q01DX009 (ip), vehicle: Klucel (hydroxypropylcellulose) (HPC) 90 % of control | dose: 0.25 mg/kg/injection, schedule: Q04DX003 (ip), vehicle: Klucel (hydroxypropylcellulose) (HPC) 97 % of control | [19] 93 % of control | dose: 0.5 mg/kg/injection, schedule: Q04DX003 (ip), vehicle: Klucel (hydroxypropylcellulose) (HPC) 95 % of control | dose: 0.78 mg/kg/injection, schedule: Q01DX009 (ip), vehicle: Klucel (hydroxypropylcellulose) (HPC) 91 % of control | dose: 1.0 mg/kg/injection, schedule: Q04DX003 (ip), vehicle: Klucel (hydroxypropylcellulose) (HPC) 92 % of control | dose: 1.4 mg/kg/injection, schedule: Q04DX003 (ip), vehicle: Klucel (hydroxypropylcellulose) (HPC) 107 % of control | dose: 1.56 mg/kg/injection, schedule: Q01DX009 (ip), vehicle: Klucel (hydroxypropylcellulose) (HPC) 88 % of control | dose: 2.2 mg/kg/injection, schedule: Q04DX003 (ip), vehicle: Klucel (hydroxypropylcellulose) (HPC) 107 % of control | dose: 3.3 mg/kg/injection, schedule: Q04DX003 (ip), vehicle: Klucel (hydroxypropylcellulose) (HPC) 95 % of control

O=C(O)c1c(Cl)cccc1Cl
inactive: [10] 105 % of control | [12] 95 % of control | dose: 25.0 mg/kg/injection, schedule: Q04DX003 (ip), vehicle: saline with Tween-80 105 % of control | dose: 50.0 mg/kg/injection, schedule: Q04DX003 (ip), vehicle: saline with Tween-80 97 % of control

CCC[CH2][Sn]([CH2]CCC)([CH2]CCC)[O]C(=O)CC[S][Sn]([CH2]CCC)([CH2]CCC)[CH2]CCC
inactive: dose: 1.0 mg/kg/injection, schedule: Q01DX009 (ip), vehicle: saline with Tween-80 92 % of control | dose: 2.0 mg/kg/injection, schedule: Q01DX009 (ip), vehicle: saline with Tween-80 95 % of control

NC(=S)N/N=C/c1ccc(OC(=O)COc2ccccc2)cn1
inactive: [10] 101 % of control and 110 % of control | [12] 94 % of control and 104 % of control and 119 % of control | [13] 103 % of control and 106 % of control and 117 % of control | [14] 105 % of control | [18] 105 % of control | dose: 400.0 mg/kg/injection, schedule: Q01DX009 (ip), vehicle: saline with Tween-80 108 % of control

OC1CC2CC1C=C2c1ccccc1 (centres undefined)
inactive: [15] 102 % of control | [16] 105 % of control | [17] 94 % of control

O=c1[nH][nH]c(=O)n1O
inactive: dose: 130.0 mg/kg/injection, schedule: Q01DX009 (ip), vehicle: saline 112 % of control | [2] 103 % of control | dose: 300.0 mg/kg/injection, schedule: Q01DX009 (ip), vehicle: saline 115 % of control

OCC1OC(n2cnc3c(Cl)ncnc32)C(O)C1O (centres undefined)
inactive: [7] 123 % of control | [8] 102 % of control | [9] 108 % of control | [1] 105 % of control | [2] 106 % of control | [3] 106 % of control

OC[CH2][Hg][Br]
inactive: dose: 0.37 mg/kg/injection, schedule: Q01DX009 (ip), vehicle: saline 97 % of control | dose: 0.75 mg/kg/injection, schedule: Q01DX009 (ip), vehicle: saline 94 % of control | dose: 1.5 mg/kg/injection, schedule: Q01DX009 (ip), vehicle: saline 94 % of control | dose: 3.0 mg/kg/injection, schedule: Q01DX009 (ip), vehicle: saline 93 % of control

Oc1ccc2ccccc2c1Cc1c(O)ccc2ccccc12
inactive: [12] 93 % of control | [13] 91 % of control | [14] 94 % of control | [18] 90 % of control

NP(Cl)(c1ccccc1)(c1ccccc1)c1ccccc1
inactive: dose: 0.1 mg/kg/injection, schedule: Q01DX009 (ip), vehicle: Klucel (hydroxypropylcellulose) (HPC) 103 % of control | dose: 0.2 mg/kg/injection, schedule: Q01DX009 (ip), vehicle: Klucel (hydroxypropylcellulose) (HPC) 96 % of control | [19] 100 % of control

COc1cc(O)c2c(c1)C(=O)c1cc3c(c(O)c1C2=O)CC(OC)C(C)(O)C3=O (centres undefined)
inactive: dose: 25.0 mg/kg/injection, schedule: Q01DX009 (ip), vehicle: other 104 % of control | dose: 50.0 mg/kg/injection, schedule: Q01DX009 (ip), vehicle: other 91 % of control | dose: 100.0 mg/kg/injection, schedule: Q01DX009 (ip), vehicle: other 91 % of control

Nc1nc(F)nc2nc[nH]c12
inactive: dose: 5.0 mg/kg/injection, schedule: Q01DX009 (ip), vehicle: Klucel (hydroxypropylcellulose) (HPC) 88 % of control and 109 % of control | dose: 10.0 mg/kg/injection, schedule: Q01DX009 (ip), vehicle: Klucel (hydroxypropylcellulose) (HPC) 90 % of control and 118 % of control | dose: 20.0 mg/kg/injection, schedule: Q01DX009 (ip), vehicle: Klucel (hydroxypropylcellulose) (HPC) 95 % of control and 122 % of control
